The text below walks through data of article PMC8838936, “Simultaneous Determination of Seven Lipophilic and Hydrophilic Components in Salvia miltiorrhiza Bunge by LC-MS/MS Method and Its Application to a Transport Study in a Blood-Brain-Barrier Cell Model” (Molecules, 2022).

What is called efflux ratio is the permeability from basolateral to apical divided by that in the opposite direction, in the common usage. For orientation: Papp B→A means the apparent permeability from the basolateral to the apical side of a cell layer.

Data set [1] can be described thus: Transport study in a BBB cell model (bidirectional transwell permeability). The data set is classed as in vitro ADME, Human. The note with it: human; for efflux ratio at 120 min: ER = Papp (BL-AP)/Papp (AP-BL), BBB cell model; for Papp B→A at 120 min: hBMEC monolayer on transwell, basolateral-to-apical, within 120 min, 37 °C, Mean ± SD, n = 3. As to the method: (§1) The hBMECs cells were seeded at a density of 3 × 10^5 cells per well on the transwell plates in EMC. Apical side volumes were 0.5 mL, and the medium was changed every day. Basal side volumes were 1.5 mL, and the medium was changed every other day. The medium was changed until confluent monolayers were formed. […] TEER provides information on ion current resistance across cell monolayers related to the integrity of tight junctions between cells. When the TEER reached the maximum value, the cell monolayer was used for the transport assay.
(§2) The permeability experiments were carried out bi-directionally, with working solutions containing one test component, TSI (1.25 μg/mL), DTSI (0.15 μg/mL), CTS (1.25 μg/mL), CFA (10 μg/mL), PAL (10 μg/mL), and PCTA (20 μg/mL). Aliquots of the […] compartment were collected after several time points (15, 30, 60, and 120 min) and replaced with drug-free assay buffer. The transwell plates were incubated on an orbital shaker at 37 °C for the entire experimental time. All experiments were performed in triplicate, and withdrawn samples were stored in −80 °C fridge before LC-MS/MS analysis.
(§3) For the BBB cell model, the apparent permeability coefficient, Papp in apical-to-basolateral (AP-BL) or basolateral-to-apical (BL-AP) direction, and efflux rate of each component were subsequently calculated according to the following equation: Papp = {dQ/dt} × {1/ (A × C0)},(1) where Q is the accumulation quantity of the compound in the receiver side (μg), dQ /dt is the rate of appearance of the compound in the receiver side (μg /s), C0 is the initial concentration in the donor side […], and A is the surface area of the membrane insert (cm^2). Furthermore, efflux ratios (ER) were calculated according to the following equation: ER = Papp (BL-AP)/Papp (AP-BL),(2) where Papp (BL-AP) and Papp (AP-BL) are the Papp values in the direction basolateral-to-apical and apical-to-basolateral, respectively.

For data set [2], the system named is hBMEC cell monolayer (BBB cell model). The description is as above. The class given is in vitro ADME, Human. The settings on record: BBB cell model, within 120 min. On the procedure: as §1, §2, §3
The test system of data set [3] is endothelial cell monolayers. Also noted: method as in PMID 17504224. The settings on record: facilitated efflux from the abluminal side to luminal side; cited from earlier work.
A further data set deals with BBB. Also noted: method as in PMID 26683637. The settings on record: cited from earlier work.
Data set [4] can be described thus: Stability of analytes in HBSS (autosampler 24 h; −80 °C 15 days). The data set is classed as physicochemical. The note with it: HBSS system. On the procedure: Stability was evaluated by analyzing LQC, MQC, and HQC concentrations at autosampler for 24 h and −80 °C for 15 days with five replicates. Stability was expressed in terms of accuracy (RE) and coefficient of variation (RSD). The samples were considered stable if accuracy (RE) was within ±15% of the nominal values and precision (RSD) was less than 15%.

Regarding `O=C(O)/C=C/c1ccc(O)c(O)c1` [CFA, caffeic acid], in data set [1], the efflux ratio at 120 min amounted to 1.05 and the Papp B→A at 120 min came to 22.5 ×10⁻⁶ cm/s. In addition, the “Absorption in the BBB model (class by Papp (AP-BL))” value (“Absorption in the BBB model” for short) in data set [2] was “easily absorbed”.

As to `C[C@H]1COC2=C1C(=O)C(=O)c1c2ccc2c1CCCC2(C)C` [CTS, cryptotanshinone], in data set [3], the “Transport of CTS in endothelial cell monolayers” value is recorded as “polarized transport”. Moreover, in data set [1], the efflux ratio at 120 min came out at 1.03 and the Papp B→A at 120 min stood at 5.12 ×10⁻⁶ cm/s. For the same compound, in data set [2], the “Absorption in the BBB model” value is “moderate absorption”.

As to `Cc1cccc2c3c(ccc12)C1=C(C(=O)C3=O)[C@@H](C)CO1` [DTS I, dihydrotanshinone I], in data set [1], the efflux ratio at 120 min came to 0.779 and the apparent permeability from basolateral to apical (Papp B→A) at 120 min was 3.62 ×10⁻⁶ cm/s. Also, the “Absorption in the BBB model” value in data set [2] is on record as “moderate absorption”.

On to `O=Cc1ccc(O)c(O)c1` [PAL, protocatechuic aldehyde], for which, in data set [1], the efflux ratio at 120 min was 0.805 and the Papp B→A at 120 min came to 12.2 ×10⁻⁶ cm/s. Besides, in data set [2], the “Absorption in the BBB model” value is recorded as “easily absorbed”.

As for `O=C(O)c1ccc(O)c(O)c1` [PCTA, protocatechuic acid], in data set [1], the efflux ratio at 120 min was 0.946 and the Papp B→A at 120 min amounted to 41.3 ×10⁻⁶ cm/s. In addition, the “Absorption in the BBB model” value in data set [2] is reported as “easily absorbed”.

Regarding `Cc1coc2c1C(=O)C(=O)c1c-2ccc2c1CCCC2(C)C` [TS IIA, tanshinone IIA], in the data set on BBB, the “Effect on disruption of the BBB” value was “suppress disruption of the BBB”. In data set [1], the efflux ratio at 120 min amounted to 0.673 and the Papp B→A at 120 min amounted to 0.0253 ×10⁻⁶ cm/s. The “Absorption in the BBB model” value in data set [2] was “difficult to be absorbed”.

Consider `CCC(C)(C)C(=O)O[C@H]1C[C@@H](C)C=C2C=C[C@H](C)[C@H](CC[C@@H]3C[C@@H](O)CC(=O)O3)[C@H]21` [simvastatin], for which, in data set [4], the “Stability in HBSS (in words)” value is listed as “very unstable”.
